{
  "source": "patent US20180291335A1",
  "about": "“MODIFIED POLYNUCLEOTIDES FOR ALTERING CELL PHENOTYPE” (ModernaTX, Inc., priority 2012, published 2018)",
  "molecules": {"B1": {"name": "5-methylcytidine/5-bromouridine: G-CSF mRNA (SEQ ID NO: 408) fully modified with the named combination (nucleic acid)", "chain": "GGGAAAUAAGAGAGAAAAGAAGAGUAAGAAGAAAUAUAAGAGCCACCAUGGCCGGUCCCGCGACCCAAAGCCCCAUGAAACUUAUGGCCCUGCAGUUGCUGCUUUGGCACUCGGCCCUCUGGACAGUCCAAGAAGCGACUCCUCUCGGACCUGCCUCAUCGUUGCCGCAGUCAUUCCUUUUGAAGUGUCUGGAGCAGGUGCGAAAGAUUCAGGGCGAUGGAGCCGCACUCCAAGAGAAGCUCUGCGCGACAUACAAACUUUGCCAUCCCGAGGAGCUCGUACUGCUCGGGCACAGCUUGGGGAUUCCCUGGGCUCCUCUCUCGUCCUGUCCGUCGCAGGCUUUGCAGUUGGCAGGGUGCCUUUCCCAGCUCCACUCCGGUUUGUUCUUGUAUCAGGGACUGCUGCAAGCCCUUGAGGGAAUCUCGCCAGAAUUGGGCCCGACGCUGGACACGUUGCAGCUCGACGUGGCGGAUUUCGCAACAACCAUCUGGCAGCAGAUGGAGGAACUGGGGAUGGCACCCGCGCUGCAGCCCACGCAGGGGGCAAUGCCGGCCUUUGCGUCCGCGUUUCAGCGCAGGGCGGGUGGAGUCCUCGUAGCGAGCCACCUUCAAUCAUUUUUGGAAGUCUCGUACCGGGUGCUGAGACAUCUUGCGCAGCCGUGAAGCGCUGCCUUCUGCGGGGCUUGCCUUCUGGCCAUGCCCUUCUUCUCUCCCUUGCACCUGUACCUCUUGGUCUUUGAAUAAAGCCUGAGUAGGAAG", "modifications": "5-methylcytidine/5-bromouridine modified; Description of Artificial Sequence: Synthetic Transcript Sequence"}, "B2": {"name": "N4-acetylcytidine/2-thiouridine: G-CSF mRNA (SEQ ID NO: 408) fully modified with the named combination (nucleic acid)", "chain": "B1 chain", "modifications": "N4-acetylcytidine/2-thiouridine modified; Description of Artificial Sequence: Synthetic Transcript Sequence"}, "B3": {"name": "N4-acetylcytidine/5-bromouridine: G-CSF mRNA (SEQ ID NO: 408) fully modified with the named combination (nucleic acid)", "chain": "B1 chain", "modifications": "N4-acetylcytidine/5-bromouridine modified; Description of Artificial Sequence: Synthetic Transcript Sequence"}},
  "key": {"HeLa cells [1]": {"system": "HeLa cells", "test": "Luciferase in HeLa cells using a combination of modifications", "assay_type": "cell-based, human", "conditions": "83 ng luciferase modified RNA, 18 to 22 hours, listed as 5-methylcytidine/pseudouridine", "experimental": "To evaluate using of 2′fluoro-modified mRNA in combination with other modification a series of mRNA were transcribed using either wild-type T7 polymerase (non-fluoro-containing compounds) or using mutant T7 polymerases (fluyoro-containing compounds) as described in Example 86. All modified mRNA were tested by in vitro transfection in HeLa cells.\n(§1) The day before transfection, 20,000 HeLa cells (ATCC no. CCL-2; Manassas, Va.) were harvested by treatment with Trypsin-EDTA solution (LifeTechnologies, Grand Island, N.Y.) and seeded in a total volume of 100 ul EMEM medium (supplemented with 10% FCS and 1× Glutamax) per well in a 96-well cell culture plate (Corning, Manassas, Va.). The cells were grown at […] in 5% CO2 atmosphere overnight. […] Lipofectamine 2000 (LifeTechnologies, Grand Island, N.Y.) was used as transfection reagent and 0.2 ul were diluted in 10 ul final volume of OPTI-MEM. After 5 minutes of incubation at room temperature, both solutions were combined and incubated an additional 15 minute at room temperature. Then the 20 ul combined solution was added to the 100 ul cell culture medium containing the HeLa cells and incubated at room temperature.\n(§2) After 18 to 22 hours of incubation cells expressing luciferase were lysed with 100 ul of Passive Lysis Buffer (Promega, Madison, Wis.) according to manufacturer instructions. Aliquots of the lysates were transferred to white opaque polystyrene 96-well plates (Corning, Manassas, Va.) and combined with 100 ul complete luciferase assay solution (Promega, Madison, Wis.). The lysate volumes were adjusted or diluted until no more than 2 mio relative light units (RLU) per well were detected for the strongest signal producing samples and the RLUs for each chemistry tested are shown in Table 26. The plate reader was a BioTek Synergy H1 (BioTek, Winooski, Vt.). The background signal of the plates without reagent was about 200 relative light units per well."}, "[2]": {"system": "Rabbit Reticulocyte Lysate", "test": "In vitro screening in rabbit reticulocyte lysates, luciferase mRNA translation", "assay_type": "biochemical", "conditions": "250 ng luciferase mRNA, 60 minutes, 30° C.", "experimental": "The diluted luciferase was added to 40 ul of freshly prepared Rabbit Reticulocyte Lysate and the in vitro translation reaction was done in a standard 1.5 mL polypropylene reaction tube (Thermo Fisher Scientific, Waltham, Mass.) at 30° C. in a dry heating block. The translation assay was done with the Rabbit Reticulocyte Lysate (nuclease-treated) kit (Promega, Madison, Wis.) according to the manufacturer's instructions. The reaction buffer was supplemented with a one-to-one blend of provided amino acid stock solutions devoid of either Leucine or Methionine resulting in a reaction mix containing sufficient amounts of both amino acids to allow effective in vitro translation.\nAfter 60 minutes of incubation, the reaction was stopped by placing the reaction tubes on ice. Aliquots of the in vitro translation reaction containing luciferase modified RNA were transferred to white opaque polystyrene 96-well plates (Corning, Manassas, Va.) and combined with 100 ul complete luciferase assay solution (Promega, Madison, Wis.). The volumes of the in vitro translation reactions were adjusted or diluted until no more than 2 mio relative light units (RLUs) per well were detected for the strongest signal producing samples and the RLUs for each chemistry tested are shown in Table 20. The plate reader was a BioTek Synergy H1 (BioTek, Winooski, Vt.). The background signal of the plates without reagent was about 200 relative light units per well."}, "HeLa cells [3]": {"system": "HeLa cells", "test": "In vitro screening in HeLa cells, luciferase modified RNA", "assay_type": "cell-based, human", "conditions": "HeLa cells, 83 ng luciferase modified RNA, 18 to 22 hours", "experimental": "as §1\nas §2, with “19.” for “26.”"}, "[4]": {"system": "tumor necrosis factor-alpha (TNF-alpha)", "test": "2′Fluoro chemistries in PBMC: TNF-alpha production by ELISA", "assay_type": "cell-based, human", "conditions": "G-CSF modified mRNA"}, "[5]": {"system": "interferon-alpha (IFN-alpha)", "test": "2′Fluoro chemistries in PBMC: IFN-alpha production by ELISA", "assay_type": "cell-based, human", "conditions": "G-CSF modified mRNA"}, "HeLa cells [6]": {"system": "HeLa cells", "test": "G-CSF modified mRNA transfected in HeLa cells, G-CSF ELISA", "assay_type": "cell-based, human", "conditions": "HeLa cells, combination chemistries, ELISA", "experimental": "To assess the activity of all our different chemical modifications in the context of a second open reading frame, we replicated experiments previously conducted using luciferase mRNA, with human G-CSF mRNA. […] The mutant T7 polymerase was obtained commercially (Durascribe® T7 Transcription kit (Cat. No. DS010925) (Epicentre®, Madison, Wis.).\nThe modified RNA in Tables 27 and 28 were transfected in vitro in HeLa cells or added to rabbit reticulysates (250 ng of modified mRNA) as indicated. […] In Table 27, “NT” means not tested."}},
  "data": [
    {"molecule": "5-methylcytosine/pseudouridine, test A1: Luciferase mRNA (SEQ ID NO: 409) modified with 5-methylcytosine and pseudouridine; repeated tests", "values": [
      {"measurement": "RLU", "setting": "HeLa cells [1]; test A", "value": "13,833 RLU"},
      {"measurement": "RLU", "setting": "HeLa cells [1]; test B", "value": "115,401 RLU"},
      {"measurement": "RLU", "setting": "[2]", "value": "349,398 RLU"},
      {"measurement": "RLU", "setting": "[2]; test A2", "value": "558,779 RLU"},
      {"measurement": "RLU", "setting": "[2]; test A3", "value": "413,535 RLU"},
      {"measurement": "RLU", "setting": "[2]; test B1", "value": "454,662 RLU"},
      {"measurement": "RLU", "setting": "[2]; test B2", "value": "487,805 RLU"},
      {"measurement": "RLU", "setting": "HeLa cells [3]", "value": "48,659 RLU"},
      {"measurement": "RLU", "setting": "HeLa cells [3]; test A2", "value": "295,824 RLU"},
      {"measurement": "RLU", "setting": "HeLa cells [3]; test A3", "value": "438,831 RLU"},
      {"measurement": "RLU", "setting": "HeLa cells [3]; test B1", "value": "317,744 RLU"},
      {"measurement": "RLU", "setting": "HeLa cells [3]; test B2", "value": "481,477 RLU"}
    ]},
    {"molecule": "CCOCc1nc2c(N)nc3ccccc3c2n1CC(C)(C)O", "note": "[Compound R-848, reference compound]", "values": [
      {"measurement": "TNF-alpha: 2 Donor Average", "setting": "[4]", "value": "8,235 pg/ml"},
      {"measurement": "IFN-alpha: 3 Donor Average", "setting": "[5]", "value": 45, "unit": "pg/mL"}
    ]},
    {"molecule": "B1", "values": [
      {"measurement": "TNF-alpha: 2 Donor Average", "setting": "[4]", "value": 270, "unit": "pg/mL"},
      {"measurement": "IFN-alpha: 3 Donor Average", "setting": "[5]", "value": 0, "unit": "pg/mL"},
      {"measurement": "G-CSF protein (pg/ml) HeLa cells", "setting": "HeLa cells [6]", "value": "48,864 pg/ml"}
    ]},
    {"molecule": "B2", "values": [
      {"measurement": "TNF-alpha: 2 Donor Average", "setting": "[4]", "value": 285, "unit": "pg/mL"},
      {"measurement": "IFN-alpha: 3 Donor Average", "setting": "[5]", "value": 0, "unit": "pg/mL"},
      {"measurement": "G-CSF protein (pg/ml) HeLa cells", "setting": "HeLa cells [6]", "value": "46,136 pg/ml"}
    ]},
    {"molecule": "B3", "values": [
      {"measurement": "TNF-alpha: 2 Donor Average", "setting": "[4]", "value": 403, "unit": "pg/mL"},
      {"measurement": "IFN-alpha: 3 Donor Average", "setting": "[5]", "value": 44, "unit": "pg/mL"},
      {"measurement": "G-CSF protein (pg/ml) HeLa cells", "setting": "HeLa cells [6]", "value": "211,591 pg/ml"}
    ]}
  ]
}
